Assay results published in ChEMBL document CHEMBL1287762, “Synthesis and biological evaluation of 3-[4-(amino/methylsulfonyl)phenyl]methylene-indolin-2-one derivatives as novel COX-1/2 and 5-LOX inhibitors” (Bioorg Med Chem Lett, 2010).
pIC50: −log10 of the molar value.

Tests used:
[1] = system: Mus musculus; test: Analgesic activity in BALB/c mouse assessed as inhibition of acetic acid-induced writhing response for 15 mins at 22.96 mg/kg, po; format: functional; conditions: 0.25 h
[2] = system: Rattus norvegicus; test: Antiinflammatory activity in Wistar rat assessed as inhibition of carrageenan-induced paw edema at 11.48 mg/kg, po administered 1 hr before carrageenan challenge measured at 6 hrs by plethysmometer; format: functional
[3] = biological target: T1, Prostaglandin G/H synthase 1 (Oryctolagus cuniculus, UniProt O97554); test: Inhibition of COX-1 in rabbit peripheral venous blood assessed as formation of 12-hydroxyheptadecatrienoic acid after 24 hrs by HPLC in presence of calcium ionophore A23187
T1 sequence (O97554 whole entry): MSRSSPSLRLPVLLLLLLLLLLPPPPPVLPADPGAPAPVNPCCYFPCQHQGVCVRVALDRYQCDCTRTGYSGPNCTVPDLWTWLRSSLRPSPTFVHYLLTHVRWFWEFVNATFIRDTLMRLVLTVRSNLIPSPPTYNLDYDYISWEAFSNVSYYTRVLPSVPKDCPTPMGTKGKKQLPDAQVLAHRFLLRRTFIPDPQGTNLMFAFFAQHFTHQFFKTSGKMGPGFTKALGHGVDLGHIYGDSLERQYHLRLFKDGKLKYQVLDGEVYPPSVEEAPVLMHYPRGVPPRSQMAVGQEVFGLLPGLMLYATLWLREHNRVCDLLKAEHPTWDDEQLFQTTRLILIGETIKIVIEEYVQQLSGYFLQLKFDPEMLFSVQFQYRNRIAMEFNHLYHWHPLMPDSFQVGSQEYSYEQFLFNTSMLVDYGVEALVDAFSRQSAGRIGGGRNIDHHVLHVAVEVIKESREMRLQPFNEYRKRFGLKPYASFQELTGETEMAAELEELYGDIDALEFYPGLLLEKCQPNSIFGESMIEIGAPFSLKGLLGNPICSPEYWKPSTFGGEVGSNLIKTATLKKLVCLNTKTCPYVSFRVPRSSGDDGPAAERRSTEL

[4] = system: Rattus norvegicus; test: Antiinflammatory activity in Wistar rat assessed as inhibition of carrageenan-induced paw edema at 11.48 mg/kg, po administered 1 hr before carrageenan challenge measured at 3 hrs by plethysmometer; format: functional
[5] = system: Rattus norvegicus; test: Antiinflammatory activity in Wistar rat assessed as inhibition of carrageenan-induced paw edema at 11.48 mg/kg, po administered 1 hr before carrageenan challenge measured at 1 hr by plethysmometer; format: functional
[6] = biological target: T2, Prostaglandin G/H synthase 2 (Oryctolagus cuniculus, UniProt O02768); test: Inhibition of COX-2 in rabbit peripheral venous blood assessed as formation of 12-hydroxyheptadecatrienoic acid after 24 hrs in by HPLC presence of calcium ionophore […] and lipopolysaccharide; format: tissue-based
T2 sequence (O02768 whole entry): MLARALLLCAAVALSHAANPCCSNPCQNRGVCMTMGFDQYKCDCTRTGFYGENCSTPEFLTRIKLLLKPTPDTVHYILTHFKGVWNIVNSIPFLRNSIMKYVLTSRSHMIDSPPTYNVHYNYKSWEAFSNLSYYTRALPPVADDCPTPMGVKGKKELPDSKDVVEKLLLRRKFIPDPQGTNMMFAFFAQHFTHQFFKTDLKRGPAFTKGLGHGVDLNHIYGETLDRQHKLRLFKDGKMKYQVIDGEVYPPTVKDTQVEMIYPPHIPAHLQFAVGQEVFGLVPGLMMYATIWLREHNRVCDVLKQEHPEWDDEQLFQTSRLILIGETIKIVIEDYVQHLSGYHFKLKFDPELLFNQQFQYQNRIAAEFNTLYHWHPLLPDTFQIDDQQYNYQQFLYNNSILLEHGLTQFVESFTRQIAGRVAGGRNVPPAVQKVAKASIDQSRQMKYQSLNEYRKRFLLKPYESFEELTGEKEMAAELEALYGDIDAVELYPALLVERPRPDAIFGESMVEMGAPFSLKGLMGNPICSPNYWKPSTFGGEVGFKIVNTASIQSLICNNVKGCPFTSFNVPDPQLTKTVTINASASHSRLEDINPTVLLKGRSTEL

[7] = species on record: Oryctolagus cuniculus; test: Selectivity ratio, IC50 for COX-1in rabbit peripheral venous blood to IC50 for COX-2 in rabbit peripheral venous blood; format: tissue-based
[8] = Inhibition of 5-LOX in rabbit peripheral venous blood assessed as formation of […] after 30 mins by HPLC; format: tissue-based, Oryctolagus cuniculus
[9] = system: Rattus norvegicus; test: Ulcerogenic effect in Wistar rat assessed as gastric ulcer area at 11.48 mg/kg, po administered for 7 days by microscopy; format: toxicity, organism-based, Stomach; design: dose 11.48 mg/kg, route oral; conditions: in vivo, 168 h
[10] = system: Rattus norvegicus; test: Ulcerogenic effect in Wistar rat assessed as gastric ulcer area at 10.44 mg/kg, po administered for 7 days by microscopy; format: toxicity, organism-based, Stomach; design: dose 10.44 mg/kg, route oral; conditions: in vivo, 168 h
[11] = system: Mus musculus; test: Analgesic activity in BALB/c mouse assessed as inhibition of acetic acid-induced writhing response for 15 mins at 20.88 mg/kg, po; format: functional; conditions: 0.25 h
[12] = system: Rattus norvegicus; test: Antiinflammatory activity in Wistar rat assessed as inhibition of carrageenan-induced paw edema at 10.44 mg/kg, po administered 1 hr before carrageenan challenge measured at 1 hr by plethysmometer; format: functional
[13] = system: Rattus norvegicus; test: Antiinflammatory activity in Wistar rat assessed as inhibition of carrageenan-induced paw edema at 10.44 mg/kg, po administered 1 hr before carrageenan challenge measured at 3 hrs by plethysmometer; format: functional
[14] = system: Rattus norvegicus; test: Antiinflammatory activity in Wistar rat assessed as inhibition of carrageenan-induced paw edema at 10.44 mg/kg, po administered 1 hr before carrageenan challenge measured at 6 hrs by plethysmometer; format: functional

pIC50 [3] | pIC50 [6] | pIC50 [8] | SMILES | inhibition in vivo at 22.96 mg/kg [1] | inhibition in vivo at 11.48 mg/kg [2] | inhibition in vivo at 11.48 mg/kg [4] | inhibition in vivo at 11.48 mg/kg [5] | Ratio IC50 [7] | Activity [9] | Activity [10] | inhibition in vivo at 20.88 mg/kg [11] | inhibition in vivo at 10.44 mg/kg [12] | inhibition in vivo at 10.44 mg/kg [13] | inhibition in vivo at 10.44 mg/kg [14]
6.96 | 7.00 | 6.25 | CS(=O)(=O)c1ccc(/C=C2/C(=O)Nc3ccc(Br)cc32)cc1 | 82.8% | 29.4% | 47.2% | 33.3% | 1.1 | 0.44 mm2 | – | – | – | – | –
6.30 | 5.48 | 5.41 | CS(=O)(=O)c1ccc(/C=C2/C(=O)Nc3ccc([N+](=O)[O-])cc32)cc1 | – | – | – | – | 0.15 | – | 0.81 mm2 | 73.2% | 28.6% | 33.3% | 23.5%
